# Assay results published in patent US9255085B2, “Carboxamide compounds and methods for using the same” (Rigel Pharmaceuticals, Inc., priority 2008, dated 2016).
# Biological target: AMPK
# Assay: AMPK activation, enzyme-linked immunosorbent assay
# Type: biochemical
# Conditions: ELISA, Table 7
# Method: Compounds 1-13 were assayed for their ability to activate AMPK using an enzyme-linked immunosorbent assay.
# Compounds 14-16 were assayed for their ability to activate AMPK using an enzyme-linked immunosorbent assay.
# Compounds 17-18 were assayed for their ability to activate AMPK using an enzyme-linked immunosorbent assay.
# Compounds 19-22 were assayed for their ability to activate AMPK using an enzyme-linked immunosorbent assay.
# Compounds 23-26 were assayed for their ability to activate AMPK using an enzyme-linked immunosorbent assay.
# Compounds 27-33 were assayed for their ability to activate AMPK using an enzyme-linked immunosorbent assay.
# Compounds 34-42 were assayed for their ability to activate AMPK using an enzyme-linked immunosorbent assay.
row,Structure (SMILES),EC50 [nM]
1,"N#Cc1ccc(CN2CCC(NC(=O)c3ccc(C(=O)NC4CCN(Cc5ccccc5)CC4)cc3)CC2)cc1 [Compound 33, N^1-(1-Benzylpiperidin-4-yl)-N^4-(1-(4-cyanobenzyl)piperidin-4-yl)terephthalamide]",10000 to 100000

# Same assay, conditions: ELISA, Table 8
row,Structure (SMILES),EC50 [nM]
1,"N#Cc1ccc(CN2CCC(NC(=O)c3ccc4c(c3)CN(Cc3ccc(C#N)cc3)CC4)CC2)cc1 [Compound 37, 2-(4-cyanobenzyl)-N-(1-(4-cyanobenzyl)piperidin-4-yl)-1,2,3,4-tetrahydroisoquinoline-7-carboxamide]",< 100
2,"N#Cc1ccc(CN2CCc3ccc(C(=O)NC4CCN(Cc5cccnc5)CC4)cc3C2)cc1 [Compound 38, 2-(4-Cyanobenzyl)-N-(1-(pyridin-3-ylmethyl)piperidin-4-yl)-1,2,3,4-tetrahydroisoquinoline-7-carboxamide]",< 100
3,"N#Cc1ccc(CN2CCc3ccc(C(=O)NC4CCN(Cc5ccc(C(F)(F)F)cc5)CC4)cc3C2)cc1 [Compound 39, 2-(4-Cyanobenzyl)-N-(1-(4-(trifluoromethyl)benzyl)piperidin-4-yl)-1,2,3,4-tetrahydroisoquinoline-7-carboxamide]",1000 to 10000
4,"N#Cc1ccc(CN2CCC(NC(=O)c3ccc4c(c3)CN(Cc3ccc(F)cc3)CC4)CC2)cc1 [Compound 40, N-(1-(4-cyanobenzyl)piperidin-4-yl)-2-(4-fluorobenzyl)-1,2,3,4-tetrahydroisoquinoline-7-carboxamide]",< 100
5,"O=C(NC1CCN(Cc2cccnc2)CC1)c1ccc2c(c1)CN(Cc1ccc(F)cc1)CC2 [Compound 41, 2-(4-Fluorobenzyl)-N-(1-(pyridine-3-ylmethyl)piperidin-4-yl)-1,2,3,4-tetrahydroisoquinoline-7-carboxamide]",1000 to 10000
6,"O=C(NC1CCN(Cc2ccc(C(F)(F)F)cc2)CC1)c1ccc2c(c1)CN(Cc1ccc(F)cc1)CC2 [Compound 42, 2-(4-Fluorobenzyl)-N-(1-(4-(trifluoromethyl)benzyl)piperidin-4-yl)-1,2,3,4-tetrahydroisoquinoline-7-carboxamide]",100 to 1000
